Experimental data published in PMC6402191 (Clinical and Translational Science, 2017).
Several values for one entry are separate records, joined by “and”; a condition that tells them apart may be missing. Equal values may be shown once. Entries after “also recorded” stand apart in the source; their conditions may differ. Read-outs that look alike come from different tables or passages of the source.

Assays:
BCRP = molecular target: T1, BCRP (Homo sapiens, UniProt Q9UNQ0); assay: Bidirectional transport of baricitinib in MDCK-BCRP cells; type: in vitro ADME
T1 sequence (Q9UNQ0 1-655): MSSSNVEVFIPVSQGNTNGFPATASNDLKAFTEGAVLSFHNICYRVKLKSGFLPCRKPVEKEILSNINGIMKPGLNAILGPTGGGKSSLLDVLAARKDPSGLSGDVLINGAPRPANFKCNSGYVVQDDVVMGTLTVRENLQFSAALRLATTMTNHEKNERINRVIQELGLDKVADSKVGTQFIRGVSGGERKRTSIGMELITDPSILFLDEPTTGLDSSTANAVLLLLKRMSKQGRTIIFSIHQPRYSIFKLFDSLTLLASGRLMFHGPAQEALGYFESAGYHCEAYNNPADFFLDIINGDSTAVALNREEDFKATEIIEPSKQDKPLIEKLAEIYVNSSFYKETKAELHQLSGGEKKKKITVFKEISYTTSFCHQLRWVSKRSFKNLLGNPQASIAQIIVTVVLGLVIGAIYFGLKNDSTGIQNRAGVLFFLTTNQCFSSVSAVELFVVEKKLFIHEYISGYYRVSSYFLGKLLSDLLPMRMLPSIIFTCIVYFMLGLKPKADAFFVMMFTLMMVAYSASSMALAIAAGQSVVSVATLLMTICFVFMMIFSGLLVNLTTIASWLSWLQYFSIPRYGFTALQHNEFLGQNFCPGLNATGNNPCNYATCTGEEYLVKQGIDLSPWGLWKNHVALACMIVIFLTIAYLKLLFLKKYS

MATE2-K = MATE2-K (Homo sapiens, UniProt Q86VL8); assay: Uptake of baricitinib into MATE2-K-transfected HEK cells; type: in vitro ADME
Sequence of MATE2-K (Q86VL8 1-566 isoform Q86VL8-3): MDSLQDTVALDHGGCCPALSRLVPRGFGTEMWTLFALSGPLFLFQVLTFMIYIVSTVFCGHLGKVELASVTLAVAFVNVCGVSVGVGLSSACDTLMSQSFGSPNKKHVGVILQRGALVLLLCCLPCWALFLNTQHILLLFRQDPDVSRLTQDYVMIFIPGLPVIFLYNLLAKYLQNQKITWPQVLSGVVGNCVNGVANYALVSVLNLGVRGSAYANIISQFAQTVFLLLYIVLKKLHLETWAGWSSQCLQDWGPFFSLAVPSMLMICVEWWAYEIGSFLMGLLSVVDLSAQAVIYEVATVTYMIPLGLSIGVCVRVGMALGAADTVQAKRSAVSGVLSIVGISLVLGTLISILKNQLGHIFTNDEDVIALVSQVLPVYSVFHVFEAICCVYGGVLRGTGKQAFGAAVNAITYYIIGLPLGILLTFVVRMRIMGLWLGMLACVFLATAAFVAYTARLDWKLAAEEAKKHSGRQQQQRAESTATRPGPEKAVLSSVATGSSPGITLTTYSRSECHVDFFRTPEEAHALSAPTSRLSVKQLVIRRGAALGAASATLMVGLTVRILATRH

[1] = Clinical baricitinib-probenecid DDI study in healthy subjects; type: in vivo, human
[2] = Physicochemical input parameters
OCT2 = molecular target: T2, OCT2 (Homo sapiens, UniProt O15244); assay: Baricitinib substrate study in OCT2-transfected HEK-PEAK cells; type: in vitro ADME
T2 sequence (O15244 1-555): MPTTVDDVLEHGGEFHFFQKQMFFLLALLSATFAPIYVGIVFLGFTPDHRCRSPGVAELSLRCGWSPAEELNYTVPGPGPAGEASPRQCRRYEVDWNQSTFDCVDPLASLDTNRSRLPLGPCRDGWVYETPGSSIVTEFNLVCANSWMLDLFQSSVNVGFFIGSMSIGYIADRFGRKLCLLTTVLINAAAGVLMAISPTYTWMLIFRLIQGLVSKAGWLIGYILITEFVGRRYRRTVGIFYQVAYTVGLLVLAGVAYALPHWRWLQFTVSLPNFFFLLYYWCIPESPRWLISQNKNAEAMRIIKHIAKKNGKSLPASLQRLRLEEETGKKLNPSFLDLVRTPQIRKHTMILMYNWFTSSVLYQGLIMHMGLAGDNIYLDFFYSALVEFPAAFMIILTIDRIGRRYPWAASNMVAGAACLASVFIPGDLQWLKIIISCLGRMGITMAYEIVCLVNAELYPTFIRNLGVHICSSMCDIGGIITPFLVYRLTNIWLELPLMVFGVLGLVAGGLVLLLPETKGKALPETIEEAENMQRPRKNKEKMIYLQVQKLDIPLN

OAT3 [3] = molecular target: T3, OAT3 (Homo sapiens, UniProt Q8TCC7); assay: PBPK DDI simulations of baricitinib with OAT3 inhibitors
T3 sequence (Q8TCC7 1-542): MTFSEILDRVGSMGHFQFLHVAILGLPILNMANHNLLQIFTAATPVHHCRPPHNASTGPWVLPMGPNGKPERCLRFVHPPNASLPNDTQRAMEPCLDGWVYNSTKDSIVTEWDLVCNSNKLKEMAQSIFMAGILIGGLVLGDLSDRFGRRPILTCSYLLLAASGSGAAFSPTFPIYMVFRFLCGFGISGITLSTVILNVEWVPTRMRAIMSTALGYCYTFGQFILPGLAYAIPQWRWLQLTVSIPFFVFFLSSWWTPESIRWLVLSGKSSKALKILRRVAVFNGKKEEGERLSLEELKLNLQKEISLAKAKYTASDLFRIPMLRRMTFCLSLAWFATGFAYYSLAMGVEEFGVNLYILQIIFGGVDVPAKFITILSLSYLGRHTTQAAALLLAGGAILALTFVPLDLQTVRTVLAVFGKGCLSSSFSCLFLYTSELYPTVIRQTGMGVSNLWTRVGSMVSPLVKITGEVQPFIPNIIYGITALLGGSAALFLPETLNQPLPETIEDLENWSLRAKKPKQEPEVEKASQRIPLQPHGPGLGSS

OAT3 [4] = molecular target: T3, OAT3; assay: Uptake of baricitinib into OAT3-transfected HEK-PEAK cells; type: in vitro ADME
[5] = observed, listed as baricitinib

BCRP substrate (BCRP): substrate of BCRP | Papp A→B at 5 µM (BCRP; dog): 0.83 ×10⁻⁶ cm/s | Papp B→A at 5 µM (BCRP; dog): 10.1 ×10⁻⁶ cm/s | MATE2-K substrate (MATE2-K): substrate of MATE2‐K | MATE2‐K Vmax (MATE2-K): 1315 ± 129 pmol/min/mg protein | Uptake into MATE2-K cells relative to control cells (MATE2-K; 0.5 min): approximately three times greater | MATE2‐K Vmax (MATE2-K; PBPK input): 657.5 pmol/min/10^6 cells | CL/F, geometric mean (CV) ([1]; 4 mg baricitinib + probenecid): 8.33 (14) L/h | CL/F, geometric mean (CV) ([1]; 4 mg baricitinib only): 16.9 (22) L/h | increase of half-life in the presence of probenecid ([1]; human, in vivo): 63% | AUC ([1]; human, plasma, oral, 4 mg): 236 ng·h/mL | Cmax ([1]; human, plasma, oral, 4 mg): 36.2 ng/mL | Tmax ([1]; human, plasma, oral, 4 mg): 1 h | half-life ([1]; human, plasma, oral, 4 mg): 7.28 h | CL renal ([1]; human, urine and plasma, oral, 4 mg): 183 mL/min | AUC(0‐∞) ratio of geometric LS means, baricitinib + probenecid : baricitinib only (90% CI) ([1]; observed): 2.03 (1.91, 2.16) and 2.03(1.91‐2.16) | CLr ratio of geometric LS means, baricitinib + probenecid : baricitinib only (90% CI) ([1]; observed): 0.313 (0.289, 0.339) | Cmax ratio of geometric LS means, baricitinib + probenecid : baricitinib only (90% CI) ([1]; observed): 1.03 (0.940, 1.13) | AUC(0‐∞) ratio of geometric LS means, baricitinib + probenecid : baricitinib only (90% CI) [1, 5]: twofold; also recorded: doubled | Cmax ratio of geometric LS means, baricitinib + probenecid : baricitinib only (90% CI) [1, 5]: 1.03 | pKa [2]: 4 | OCT2 substrate (OCT2): not a substrate | Observed/Predicted AUC ratio +/- probenecid (OAT3 [3]): 1.0 | Observed/Predicted Cmax ratio +/- probenecid (OAT3 [3]): 0.9 | OAT3 substrate (OAT3 [4]): substrate of OAT3 | Uptake into OAT3-transfected cells relative to control cells (OAT3 [4]; 1-min incubation): approximately double | OAT3 Vmax (OAT3 [4]; PBPK input): 70.76 pmol/min/10^6 cells | OAT3 Vmax (OAT3 [4]; average of two experiments): 176.9 pmol/min/mg protein
SMILES: CCS(=O)(=O)N1CC(CC#N)(n2cc(-c3ncnc4[nH]ccc34)cn2)C1 [Baricitinib]
Ae(0‐48), arithmetic mean (SD) ([1]; 4 mg baricitinib + probenecid): 1.57 (0.191) mg | Ae(0‐48), arithmetic mean (SD) ([1]; 4 mg baricitinib only): 2.60 (0.399) mg | tolerability ([1]; healthy subjects, all drug-related treatment-emergent AEs mild): well tolerated | OAT3 Vmax (individual experiments) (OAT3 [4]; each of two separate experiments): 164.3 ± 7.97 pmol/min/mg protein and 189.5 ± 27.10 pmol/min/mg protein
